Experimental data published in PubChem BioAssay (NCI).
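Tested at 5 concentrations; 48 h exposure; 96-well plates; endpoints linearly interpolated, else capped at highest concentration. At the TGI there is no net growth.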

Legend:
Assay in all cases: NCI-60 cell line screen, 48 h
[1] = test system: MDA-MB-435
[2] = test system: MDA-MB-231 breast
[3] = test system: KM12 colon
[4] = test system: HS 578T breast
[5] = test system: SNB-19 CNS
[6] = test system: SR leukemia
[7] = test system: HCT-15 colon
[8] = test system: HCT-116 colon
[9] = test system: UO-31 renal
[10] = test system: SW-620 colon
[11] = test system: COLO 205 colon
[12] = test system: MCF7 breast
[13] = test system: U251 CNS
[14] = test system: HL-60(TB) leukemia
[15] = test system: SF-268 CNS
[16] = test system: DU-145 prostate
[17] = test system: RPMI-8226 leukemia
[18] = test system: SK-MEL-2 melanoma
[19] = test system: SK-MEL-5 melanoma
[20] = test system: HT29 colon
[21] = test system: MOLT-4 leukemia
[22] = test system: NCI/ADR-RES ovarian
[23] = test system: NCI-H522 lung
[24] = test system: SF-295 CNS
[25] = test system: NCI-H226 lung
[26] = test system: HOP-62 NSCLC
[27] = test system: HOP-92 NSCLC
[28] = test system: M14 melanoma
[29] = test system: UACC-62 melanoma
[30] = test system: CAKI-1 renal
[31] = test system: TK-10 renal
[32] = test system: CCRF-CEM leukemia
[33] = test system: ACHN renal
[34] = test system: OVCAR-5 ovarian
[35] = test system: OVCAR-4 ovarian
[36] = test system: SF-539 CNS
[37] = test system: A549 NSCLC
[38] = test system: SK-OV-3 ovarian
[39] = test system: MALME-3M melanoma
[40] = test system: SK-MEL-28 melanoma
[41] = test system: 786-0 renal
[42] = test system: OVCAR-8 ovarian
[43] = test system: OVCAR-3 ovarian
[44] = test system: LOX IMVI melanoma
[45] = test system: MDA-N
[46] = test system: SN12C renal
[47] = test system: K-562 leukemia
[48] = test system: IGROV1 ovarian
[49] = test system: NCI-H23 lung
[50] = test system: BT-549 breast
[51] = test system: T-47D breast
[52] = test system: EKVX NSCLC
[53] = test system: PC-3 prostate
[54] = test system: A498 renal
[55] = test system: SNB-75 CNS
[56] = test system: UACC-257 melanoma
[57] = test system: NCI-H460 lung
[58] = test system: HCC-2998 colon

Measured: TGI

COc1ccc2c3c1O[C@H]1C(=O)C=CC4(n5[nH]c(=O)n(-c6ccccc6)c5=O)C(C2)N(C)CCC314 (some centres undefined)
not listed: [55] | [56] | [57] | [58]
> 100 µM: all other assays above

Cc1oc2c(c1C)S(=O)(=O)C(C#N)=CN2
not listed: [14] | [32]
> 100 µM: all other assays above

COC(=O)c1c2c(c3[nH]c4ccccc4c3c1C(=O)OC)C(=O)C1=C(C2=O)C2(Cl)C(Cl)C(Cl)C1(Cl)C2(Cl)Cl (centres undefined)
13.8 µM: [57]
> 100 µM: [8] | [16] | [34] | [37] | [52]
7.59 µM: [2]
2.97 µM: [40]
3.42 µM: [12]
4.51 µM: [36]
4.05 µM: [39]
24.7 µM: [5]
3.03 µM: [54]
37 µM: [38]
2.63 µM: [6]
2.72 µM: [23]
3.67 µM: [21]
17.3 µM: [3]
7.48 µM: [13]
5.68 µM: [28]
6.15 µM: [32]
8.07 µM: [41]
17.5 µM: [31]
7.19 µM: [22]
1.4 µM: [10]
3.09 µM: [1]
6.31 µM: [35]
7.07 µM: [20]
4.59 µM: [29]
4.6 µM: [33]
10.8 µM: [53]
5.98 µM: [46]
9.19 µM: [30]
3.68 µM: [27]
23.2 µM: [47]
6.17 µM: [58]
3.19 µM: [11]
8.65 µM: [9]
90.9 µM: [24]
8.98 µM: [43]
2.75 µM: [19] | [45]
6.84 µM: [15] | [55]
5.28 µM: [42]
5.09 µM: [17]
21.7 µM: [26]
16.3 µM: [51]
3.91 µM: [44]
4.04 µM: [49]
4.34 µM: [50]
20.8 µM: [4]
7.78 µM: [14]
8.52 µM: [48]
